BindingDB's records for doi:10.1016/j.ejmech.2021.113204 (Shandong University, 2021)
pEC50: −log10 of the molar value.

Experiments:
[1] = Inhibition of reverse transcriptase L100I mutant in HIV-1 infected in human MT4 cells assessed as reduction in virus-induced cytopathic effect incubated for 5 days by MTT assay
[2] = Inhibition of reverse transcriptase Y188L mutant in HIV-1 infected in human MT4 cells assessed as reduction in virus-induced cytopathic effect incubated for 5 days by MTT assay
[3] = Inhibition of reverse transcriptase E138K mutant in HIV-1 infected in human MT4 cells assessed as reduction in virus-induced cytopathic effect incubated for 5 days by MTT assay
[4] = Inhibition of reverse transcriptase F227L/V106A double mutant in HIV-1 infected in human MT4 cells assessed as reduction in virus-induced cytopathic effect incubated for 5 days by MTT assay
[5] = Inhibition of reverse transcriptase K103N mutant in HIV-1 infected in human MT4 cells assessed as reduction in virus-induced cytopathic effect incubated for 5 days by MTT assay

Cc1cc(/C=C/C#N)cc(C)c1Oc1nc(Nc2ccc(CN3CCN(S(N)(=O)=O)CC3)cc2)nc2ccsc12
pEC50 [1]: 7.37
pEC50 [2]: 6.26
pEC50 [3]: 7.59
pEC50 [4]: 6.76

Cc1cc(/C=C/C#N)cc(C)c1Oc1nc(Nc2ccc(CN3CCN(S(C)(=O)=O)CC3)cc2)nc2ccsc12
pEC50 [1]: 5.81
pEC50 [5]: 6.45
pEC50 [2]: < 4.68
pEC50 [3]: 6.01
pEC50 [4]: 5.66

Cc1cc(/C=C/C#N)cc(C)c1Oc1nc(Nc2ccc(CN3CCN(S(N)(=O)=O)CC3)cc2)nc2sccc12
pEC50 [1]: 7.82
pEC50 [5]: 8.15
pEC50 [2]: 6.06
pEC50 [3]: 7.60
pEC50 [4]: 6.43

Cc1cc(/C=C/C#N)cc(C)c1Oc1nc(Nc2ccc(CN3CCN(S(C)(=O)=O)CC3)cc2)nc2sccc12
pEC50 [1]: 6.41
pEC50 [5]: 7.27
pEC50 [2]: 5.03
pEC50 [3]: 6.79
pEC50 [4]: 5.79

Cc1cc(/C=C/C#N)cc(C)c1Oc1nc(Nc2ccc(N3CCN(S(N)(=O)=O)CC3)cc2)nc2ccsc12
pEC50 [1]: 6.12
pEC50 [5]: 7.68
pEC50 [2]: 4.64
pEC50 [3]: 7.37
pEC50 [4]: 6.69

Cc1cc(/C=C/C#N)cc(C)c1Oc1nc(Nc2ccc(N3CCN(S(C)(=O)=O)CC3)cc2)nc2ccsc12
pEC50 [1]: 6.03
pEC50 [5]: 7.25
pEC50 [2]: 5.29
pEC50 [3]: 7.06
pEC50 [4]: 6.55

Cc1cc(/C=C/C#N)cc(C)c1Oc1nc(Nc2ccc(N3CCN(S(N)(=O)=O)CC3)cc2)nc2sccc12
pEC50 [1]: 6.39
pEC50 [5]: 7.51
pEC50 [2]: 4.99
pEC50 [3]: 7.30
pEC50 [4]: 6.48

Cc1cc(/C=C/C#N)cc(C)c1Oc1nc(Nc2ccc(N3CCN(S(C)(=O)=O)CC3)cc2)nc2sccc12
pEC50 [1]: 5.48
pEC50 [5]: 6.66
pEC50 [2]: 4.16
pEC50 [3]: 6.39
pEC50 [4]: 5.71

Cc1cc(/C=C/C#N)cc(C)c1Oc1nc(Nc2ccc(N3CCCC(NS(N)(=O)=O)C3)cc2)nc2ccsc12 (stereo unspecified)
pEC50 [1]: 5.78
pEC50 [5]: 6.99
pEC50 [2]: 5.17
pEC50 [3]: 6.91
pEC50 [4]: 6.42

Cc1cc(/C=C/C#N)cc(C)c1Oc1nc(Nc2ccc(N3CCCC(NS(C)(=O)=O)C3)cc2)nc2ccsc12 (stereo unspecified)
pEC50 [1]: 5.17
pEC50 [2]: 3.82
pEC50 [3]: 5.89
pEC50 [4]: 4.78

Cc1cc(/C=C/C#N)cc(C)c1Oc1nc(Nc2ccc(N3CCCC(NS(N)(=O)=O)C3)cc2)nc2sccc12 (stereo unspecified)
pEC50 [1]: 5.63
pEC50 [5]: 6.35
pEC50 [2]: 4.05
pEC50 [3]: 6.21
pEC50 [4]: 5.44

Cc1cc(/C=C/C#N)cc(C)c1Oc1nc(Nc2ccc(N3CCCC(NS(C)(=O)=O)C3)cc2)nc2sccc12 (stereo unspecified)
pEC50 [1]: 5.07
pEC50 [5]: 5.87
pEC50 [3]: 5.37
